Reference: ChEMBL document CHEMBL5705888, “Substrate specificity and inhibitors of LRRK2, a protein kinase mutated in Parkinson's disease” (Biochem J, 2009)

Legend:
[1] = molecular target: Leucine-rich repeat serine/threonine-protein kinase 2 (Homo sapiens, UniProt Q5S007, G2019S); test: Inhibition of GST-tagged LRRK2 G2019S mutant (1326 to 2527 residues) (unknown origin) using peptide as substrate incubated for 15 mins in presence of ATP by immunoblotting analysis
[2] = molecular target: Rho-associated protein kinase 2 (Homo sapiens, UniProt O75116); test: Inhibition of His6-tagged ROCK2 (2 to 543 residues) (unknown origin) using peptide as substrate incubated for 15 mins in presence of ATP by immunoblotting analysis
Rho-associated protein kinase 2, sequence (O75116 whole entry, the tested form may be a part): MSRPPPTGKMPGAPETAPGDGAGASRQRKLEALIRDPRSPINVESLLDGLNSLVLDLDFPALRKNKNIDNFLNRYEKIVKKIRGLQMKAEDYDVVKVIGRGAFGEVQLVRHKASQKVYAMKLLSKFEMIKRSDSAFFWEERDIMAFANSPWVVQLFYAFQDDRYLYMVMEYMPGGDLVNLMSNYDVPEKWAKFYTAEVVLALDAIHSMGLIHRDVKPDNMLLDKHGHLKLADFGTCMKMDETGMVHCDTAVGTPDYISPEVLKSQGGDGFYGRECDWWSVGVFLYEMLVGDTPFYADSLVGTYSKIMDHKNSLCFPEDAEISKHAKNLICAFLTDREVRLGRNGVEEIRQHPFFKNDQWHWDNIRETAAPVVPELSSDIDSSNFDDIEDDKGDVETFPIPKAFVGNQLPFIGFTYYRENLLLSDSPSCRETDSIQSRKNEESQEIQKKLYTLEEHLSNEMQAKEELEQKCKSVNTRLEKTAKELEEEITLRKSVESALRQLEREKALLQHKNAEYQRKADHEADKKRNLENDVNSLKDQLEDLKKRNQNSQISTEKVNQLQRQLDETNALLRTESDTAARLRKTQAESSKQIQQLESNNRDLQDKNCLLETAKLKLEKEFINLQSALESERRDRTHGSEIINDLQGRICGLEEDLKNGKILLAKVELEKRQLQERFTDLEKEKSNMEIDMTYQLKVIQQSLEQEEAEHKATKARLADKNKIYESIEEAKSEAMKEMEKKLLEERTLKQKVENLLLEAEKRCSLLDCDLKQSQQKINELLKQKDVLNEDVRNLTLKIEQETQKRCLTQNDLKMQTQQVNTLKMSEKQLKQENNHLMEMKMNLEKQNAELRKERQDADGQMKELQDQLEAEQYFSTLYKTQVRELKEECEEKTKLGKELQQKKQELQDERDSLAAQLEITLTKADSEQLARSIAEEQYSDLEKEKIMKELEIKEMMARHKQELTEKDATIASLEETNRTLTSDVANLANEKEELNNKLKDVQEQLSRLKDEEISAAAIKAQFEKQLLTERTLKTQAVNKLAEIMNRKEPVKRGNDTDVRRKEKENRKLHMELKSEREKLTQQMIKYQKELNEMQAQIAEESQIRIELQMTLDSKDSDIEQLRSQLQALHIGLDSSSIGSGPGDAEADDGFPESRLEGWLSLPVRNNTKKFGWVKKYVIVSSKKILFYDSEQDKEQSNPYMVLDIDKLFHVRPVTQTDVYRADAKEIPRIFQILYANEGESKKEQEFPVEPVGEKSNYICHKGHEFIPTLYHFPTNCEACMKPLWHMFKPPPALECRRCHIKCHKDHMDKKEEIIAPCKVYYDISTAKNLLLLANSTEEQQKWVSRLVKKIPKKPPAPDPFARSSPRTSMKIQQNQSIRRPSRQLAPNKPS

[3] = molecular target: Leucine-rich repeat serine/threonine-protein kinase 2 (Homo sapiens, UniProt Q5S007); test: Inhibition of GST-tagged LRRK2 (1326 to 2527 residues) (unknown origin) using peptide as substrate incubated for 15 mins in presence of ATP by immunoblotting analysis
Leucine-rich repeat serine/threonine-protein kinase 2 (Homo sapiens, UniProt Q5S007), sequence (Q5S007 whole entry, the tested form may be a part): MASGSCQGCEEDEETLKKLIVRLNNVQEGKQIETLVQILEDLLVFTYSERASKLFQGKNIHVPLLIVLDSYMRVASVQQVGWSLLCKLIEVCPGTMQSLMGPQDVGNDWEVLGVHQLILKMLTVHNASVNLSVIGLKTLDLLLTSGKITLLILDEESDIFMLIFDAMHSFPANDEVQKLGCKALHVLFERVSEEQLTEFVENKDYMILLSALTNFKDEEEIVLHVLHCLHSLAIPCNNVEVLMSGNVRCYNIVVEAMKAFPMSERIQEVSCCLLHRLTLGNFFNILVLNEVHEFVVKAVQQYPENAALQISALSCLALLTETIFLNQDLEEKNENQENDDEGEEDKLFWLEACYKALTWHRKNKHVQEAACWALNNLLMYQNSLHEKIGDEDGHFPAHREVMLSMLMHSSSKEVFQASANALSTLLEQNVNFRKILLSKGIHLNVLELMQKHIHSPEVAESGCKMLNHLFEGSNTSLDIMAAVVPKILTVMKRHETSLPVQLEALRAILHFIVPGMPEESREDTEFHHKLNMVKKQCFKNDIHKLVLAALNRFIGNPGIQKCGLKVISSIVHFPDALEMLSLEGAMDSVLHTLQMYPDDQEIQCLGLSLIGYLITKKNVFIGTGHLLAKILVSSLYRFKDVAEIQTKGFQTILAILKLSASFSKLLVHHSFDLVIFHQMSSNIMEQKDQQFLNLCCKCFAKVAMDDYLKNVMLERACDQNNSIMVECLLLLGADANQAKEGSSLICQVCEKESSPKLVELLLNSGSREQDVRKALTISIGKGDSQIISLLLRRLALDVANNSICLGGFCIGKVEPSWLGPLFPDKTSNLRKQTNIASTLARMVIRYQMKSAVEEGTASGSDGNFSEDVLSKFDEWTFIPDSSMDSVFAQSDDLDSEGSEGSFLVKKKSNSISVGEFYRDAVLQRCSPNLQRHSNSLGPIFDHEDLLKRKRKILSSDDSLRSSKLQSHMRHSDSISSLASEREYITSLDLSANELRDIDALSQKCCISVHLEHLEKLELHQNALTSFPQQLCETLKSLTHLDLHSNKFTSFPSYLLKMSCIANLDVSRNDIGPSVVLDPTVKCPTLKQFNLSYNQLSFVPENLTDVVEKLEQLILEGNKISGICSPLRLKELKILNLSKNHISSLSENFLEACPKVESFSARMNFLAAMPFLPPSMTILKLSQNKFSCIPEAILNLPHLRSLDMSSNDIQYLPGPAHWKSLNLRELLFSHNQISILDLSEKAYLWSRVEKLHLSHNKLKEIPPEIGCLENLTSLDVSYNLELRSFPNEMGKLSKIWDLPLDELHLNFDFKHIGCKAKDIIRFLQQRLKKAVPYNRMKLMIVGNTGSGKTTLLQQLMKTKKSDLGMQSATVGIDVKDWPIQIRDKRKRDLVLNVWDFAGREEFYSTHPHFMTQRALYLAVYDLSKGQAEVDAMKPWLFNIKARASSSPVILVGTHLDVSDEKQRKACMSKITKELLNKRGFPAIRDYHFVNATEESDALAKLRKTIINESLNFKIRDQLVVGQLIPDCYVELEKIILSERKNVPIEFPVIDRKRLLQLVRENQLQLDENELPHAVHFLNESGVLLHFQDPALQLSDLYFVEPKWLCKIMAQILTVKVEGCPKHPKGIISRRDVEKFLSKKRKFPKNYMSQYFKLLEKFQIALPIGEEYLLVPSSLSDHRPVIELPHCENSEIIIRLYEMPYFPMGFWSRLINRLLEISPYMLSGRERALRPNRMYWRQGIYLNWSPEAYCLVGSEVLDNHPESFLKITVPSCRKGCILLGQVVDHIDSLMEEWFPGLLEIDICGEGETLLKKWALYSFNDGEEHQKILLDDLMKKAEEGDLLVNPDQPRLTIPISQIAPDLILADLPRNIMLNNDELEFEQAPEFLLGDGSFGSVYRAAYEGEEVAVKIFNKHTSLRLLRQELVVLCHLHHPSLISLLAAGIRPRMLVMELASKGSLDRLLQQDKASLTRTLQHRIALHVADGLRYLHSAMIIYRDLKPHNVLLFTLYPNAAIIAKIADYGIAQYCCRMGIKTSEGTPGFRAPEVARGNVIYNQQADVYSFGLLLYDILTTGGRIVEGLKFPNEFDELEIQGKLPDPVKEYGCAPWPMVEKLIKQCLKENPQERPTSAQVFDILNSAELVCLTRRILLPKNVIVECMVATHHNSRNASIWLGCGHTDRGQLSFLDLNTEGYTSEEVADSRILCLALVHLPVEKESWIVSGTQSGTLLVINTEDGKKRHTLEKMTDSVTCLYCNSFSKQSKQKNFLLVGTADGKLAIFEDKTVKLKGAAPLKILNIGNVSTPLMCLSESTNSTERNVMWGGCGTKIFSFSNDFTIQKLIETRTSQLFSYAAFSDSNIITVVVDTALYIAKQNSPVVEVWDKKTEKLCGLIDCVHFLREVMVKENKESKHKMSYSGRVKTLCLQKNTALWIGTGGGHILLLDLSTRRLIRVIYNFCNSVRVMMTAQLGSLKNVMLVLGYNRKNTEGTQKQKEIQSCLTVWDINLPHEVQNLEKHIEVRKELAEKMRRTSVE

Leucine-rich repeat serine/threonine-protein kinase 2 (Homo sapiens, UniProt Q5S007, G2019S), sequence (Q5S007 whole entry G2019S, the tested form may be a part): as the sequence (Q5S007 whole entry, the tested form may be a part) above, with G2019S counted along it

IC50 [1]: > 10 µM | IC50 [2]: 0.29 µM | IC50 [3]: > 10 µM
SMILES: O=S(=O)(NCCNC/C=C/c1ccc(Br)cc1)Nc1cccc2cnccc12
